Columns and labels:
EGFR = EGFR (Homo sapiens, UniProt P00533); experiment: EGFR kinase HTRF assay; format: biochemical; settings: 0.5 μM ATP, read-out: IC50 (μM) - Enzyme Inhibition Assays EGFR
Procedure: To determine inhibition of KDR, FGFR, EGFR, and PDGFR activity, kinase assays were conducted using an HTRF (Homogeneous Time Resolved Fluorescence) assay. This assay is described in A. J. Kolb et. al., Drug Discovery Today, 1998, 3(7), p 333.
Kinase activity assays were performed in 96-well polypropylene plates (Falcon) with a total volume of 90 μL in each well. Each well contained 1 μM KDR substrate (Biotin-EEEEYFELVAKKKK), 1 nM activated KDR, and a test compound with one of 8 assay concentrations ranging from 100 μM to […] (1:5 serial dilution). The kinase activity assay was done in the presence of 100 mM HEPES, pH 7.4, 1 mM DTT, 0.1 mM Na2VO4, 25 mM MgCl2, 50 mM NaCl (from KDR stock solution), 1% DMSO (from compound), 0.3 mM ATP (at Km concentration) and 0.02% BSA. The reaction was incubated at 37° C. for 30 minutes. To stop the KDR reaction, 72 μL of reaction mixture was transferred into a STOP plate containing 18 μL of revelation buffer (20 mM EDTA, 50 mM HEPES, pH 7.4, 0.02% BSA, 10 nM Eu-labelled anti-pY antibody (final conc. 2 nM), and 100 nM streptavidin (final conc. 20 nM)). After mixing, 35 μL of solution was transferred into duplicate wells of a 384-well black plate (Costar), and read at 615/665 nm on a Wallac Victor 5 reader.
The EGFR kinase activity assay was performed with 1 μM substrate (Biotin-EEEEYFELV), 1.5 nM EGFR, test compounds, 100 mM HEPES, pH 7.4, 1 mM DTT, 5 mM MgCl2, 2 mM MnCl2, 1% DMSO, 0.5 μM ATP (Km for EGFR), 0.1 mM Na2VO4, and 0.02% BSA. The rest of the assay was performed in the same manner as the KDR assay.
Compound IC50 values were determined from duplicate sets of data, and calculated by using Excel and fitting data to equation Y=[(a−b)/{1+(X/c)^d]+b, where a and b are enzyme activity in the presence of no test inhibitor compound and an infinite amount of inhibitor test compound, respectively, c is the IC50 and d is the hill constant of the compound response. The IC50 value is the concentration of test compound that reduces by 50% the enzyme activity under the test conditions described.

FGF-stimulated HUVEC = FGF-stimulated HUVEC proliferation assay (BrdU); format: cell-based; settings: Homo sapiens, FGF 5 ng per mL, BrdU labeling, 24 hour exposure, read-out: IC50 (μM) of VEGF and FGF-Stimulated HUVEC Proliferation Assays HUVEC/bFGFR
Procedure: The antiproliferative activity of test compounds of this invention in cell-based assays was evaluated by BrdU assay using the BrdU kit (Roche Biochemicals 1-647-229). Human umbilical vein endothelial cells (HUVEC, Clonetics CC-2519) were cultured in EGM-2 (Clonetics CC-3162) medium and seeded at 10000 cells per well in a volume of 200 μL of EGM-2 (Clonetics CC-3162) media in a 96-well flat bottom plates (Costar 3595) overnight. After 24 hours of growth at 37° C. with 5% CO2, the incubation media was removed slowly by aspiration and the content of each well was washed with 300 μL pre-warmed EBM-2 (Clonetics CC-3156) containing 50 μg per mL of gentamycin and 50 ng per mL of amphotercin-B (Clonetics CC-4083). Subsequently, the remaining media was again aspirated and replaced with 160 μL per well of serum starvation media (EBM-2 supplemented with 1% heat inactivated FBS (Clonetics CC-4102), 50 μg per mL gentamycin and 50 ng per mL of amphotercin-B (Clonetics CC-4083), 10 units per mL of Wyeth-Ayerst heparin (NDC0641-0391-25), and 2 mM L-glutamine (GIBCO 25030-081). After serum starving the cells for 24 hours, 20 μL of test compound at 10× test concentration in serum starvation medium with 2.5% DMSO was added to the appropriate wells. The control wells contained 20 μL of serum starvation medium with 2.5% DMSO. Plates were returned to the incubator for 2 hours. After pre-incubating the cells with the test compounds for 2 hours, 20 μL of growth factors at 10× assay concentration diluted in serum starvation media, FGF at 50 ng per mL, or VEGF (R&D systems 293-VE) at 200 ng per mL were added. The final concentration of FGF in the assay was 5 ng per mL and the final concentration of VEGF in the assays was 20 ng per mL. The growth factor free control wells had 20 μL per well of serum starvation media with the same amount of BSA as the wells with growth factors. The plates were returned to the incubator for an additional 22 hours.
After 24 hour exposure to the test compounds, the cells were labeled with BrdU (Roche Biochemicals 1-647-229), by adding 20 μL per well of BrdU labeling reagent that has been diluted (1:100) in serum starvation medium. The plates were then returned to the incubator for 4 hours. The labeling medium was removed by draining the medium onto paper towels. The cells were fixed and DNA denatured by adding 200 μL of fixation/denaturation solution to each well and incubating at room temperature for 45 minutes. The fixation/denaturation solution was drained onto paper towels and to each well was added 100 μL of anti-BrdU-POD and the wells were incubated for 2 hours at room temperature. The antibody solution was removed and the wells were each washed 3–4 times with 300 μl PBS. 100 μL of the TMB substrate solution was added to each well and the wells were incubated at room temperature for 5–8 minutes. The reaction was then stopped by adding 100 μL per well of 1 M phosphoric acid. The plates were read at 450 nm with reference wavelength of 650 nm. The percent inhibition for each test compound was calculated by subtracting the absorbency of the blank (no cells) wells from all wells, then subtracting the division of the average absorbency of each test duplicate by the average of the controls from 1. The final product was then multiplied by 100 (% of inhibition=(1−average absorbency of test duplicate/average of control)100). The IC50 value is the concentration of test compound that inhibits by 50% BrdU labeling, and is a measure of inhibition of cell proliferation. The IC50 is determined from the linear regression of a plot of the logarithm of the concentration versus percent inhibition.

EGFR, sequence (P00533 25-1210, species assumed): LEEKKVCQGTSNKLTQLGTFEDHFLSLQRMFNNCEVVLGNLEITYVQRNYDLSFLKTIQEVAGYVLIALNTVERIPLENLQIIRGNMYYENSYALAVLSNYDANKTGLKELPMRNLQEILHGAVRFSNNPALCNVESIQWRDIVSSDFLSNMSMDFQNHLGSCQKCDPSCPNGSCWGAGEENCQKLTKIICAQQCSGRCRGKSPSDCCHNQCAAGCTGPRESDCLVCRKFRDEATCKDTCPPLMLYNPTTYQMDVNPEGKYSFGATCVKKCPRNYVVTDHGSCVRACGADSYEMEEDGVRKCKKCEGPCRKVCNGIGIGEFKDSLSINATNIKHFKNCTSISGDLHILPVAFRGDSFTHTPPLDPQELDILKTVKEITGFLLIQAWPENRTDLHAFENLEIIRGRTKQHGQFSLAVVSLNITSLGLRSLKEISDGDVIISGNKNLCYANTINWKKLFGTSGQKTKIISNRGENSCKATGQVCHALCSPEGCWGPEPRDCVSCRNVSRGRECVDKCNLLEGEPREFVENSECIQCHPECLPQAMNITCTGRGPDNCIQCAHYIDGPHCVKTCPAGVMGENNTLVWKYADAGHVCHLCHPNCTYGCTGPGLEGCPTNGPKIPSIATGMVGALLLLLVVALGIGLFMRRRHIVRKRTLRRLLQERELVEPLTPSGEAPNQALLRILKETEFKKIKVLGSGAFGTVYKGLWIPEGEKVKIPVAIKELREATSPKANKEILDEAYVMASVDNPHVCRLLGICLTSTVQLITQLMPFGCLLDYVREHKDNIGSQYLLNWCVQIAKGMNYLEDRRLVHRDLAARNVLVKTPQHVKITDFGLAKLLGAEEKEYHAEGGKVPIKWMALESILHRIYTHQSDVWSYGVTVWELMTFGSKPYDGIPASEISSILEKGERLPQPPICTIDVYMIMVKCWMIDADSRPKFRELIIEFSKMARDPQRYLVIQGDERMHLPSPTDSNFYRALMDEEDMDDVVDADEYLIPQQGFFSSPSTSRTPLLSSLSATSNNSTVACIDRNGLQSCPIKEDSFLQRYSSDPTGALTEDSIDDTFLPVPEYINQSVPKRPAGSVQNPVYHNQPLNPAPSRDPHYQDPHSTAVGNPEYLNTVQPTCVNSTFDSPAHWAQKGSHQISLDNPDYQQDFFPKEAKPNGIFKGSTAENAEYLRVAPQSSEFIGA

Row | IC50 (EGFR) [µM] | SMILES | IC50 (FGF-stimulated HUVEC) [µM]
1 | < 10 | COc1ccc(N2C(=O)N(c3ccccc3)c3nc(Nc4ccccc4)ncc3C2C)cc1 (racemic) [Example 1g, (±)-3-(4-Methoxy-phenyl)-4-methyl-1-phenyl-7-phenylamino-3,4-dihydro-1H-pyrimido[4,5-d]pyrimidin-2-one] | < 10
2 | < 10 | COc1ccc(N2C(=O)N(c3ccc(OC)cc3)C(C)c3cnc(Nc4ccccc4)nc32)cc1 (racemic) [Example 4b, (±)-1,3-Bis-(4-methoxy-phenyl)-4-methyl-7-phenylamino-3,4-dihydro-1H-pyrimido[4,5-d]pyrimidin-2-one] | < 10
3 | < 10 | COc1ccc(N2C(=O)N(c3cccc(C#N)c3)c3nc(Nc4ccccc4)ncc3C2C)cc1 (racemic) [Example 5b, (±)-3-[3-(4-Methoxy-phenyl)-4-methyl-2-oxo-7-phenylamino-3,4-dihydro-2H-pyrimido[4,5-d]pyrimidin-1-yl]-benzonitrile] | < 10
4 | < 10 | COc1ccc(N2C(=O)N(c3cccc(C(N)=O)c3)c3nc(Nc4ccccc4)ncc3C2C)cc1 (racemic) [Example 6, (±)-3-[3-(4-Methoxy-phenyl)-4-methyl-2-oxo-7-phenylamino-3,4-dihydro-2H-pyrimido[4,5-d]pyrimidin-1-yl]-benzamide] | < 10
5 | < 10 | COc1ccc(N2C(=O)N(c3ccccc3)c3nc(Nc4ccccc4)ncc3C2C)c(F)c1 (racemic) [Example 8d, (±)-3-(2-Fluoro-4-methoxy-phenyl)-4-methyl-1-phenyl-7-phenylamino-3,4-dihydro-1H-pyrimido[4,5-d]pyrimidin-2-one] | < 10
6 | < 10 | COc1ccc(N2C(=O)N(c3cccc(C#N)c3)c3nc(Nc4ccccc4)ncc3C2C)c(F)c1 (racemic) [Example 9b, (±)-3-[3-(2-Fluoro-4-methoxy-phenyl)-4-methyl-2-oxo-7-phenylamino-3,4-dihydro-2H-pyrimido[4,5-d]pyrimidin-1-yl]-benzonitrile] | < 10
7 | < 10 | COc1ccc(N2C(=O)N(c3cccc(C(N)=O)c3)c3nc(Nc4ccccc4)ncc3C2C)c(F)c1 (racemic) [Example 10, (±)-3-[3-(2-Fluoro-4-methoxy-phenyl)-4-methyl-2-oxo-7-phenylamino-3,4-dihydro-2H-pyrimido[4,5-d]pyrimidin-1-yl]-benzamide] | < 10
8 | < 10 | COc1ccc(N2C(=O)N(c3ccccc3)c3nc(Nc4ccccc4)ncc3[C@@H]2C)cc1 (single isomer, unassigned) [Example 3] | < 10
9 | < 10 | COc1ccc(N2C(=O)N([C@H](C)CO)c3nc(Nc4ccccc4)ncc3[C@@H]2C)cc1 [Example 15b, 1-(2-Hydroxy-1-(R)-methyl-ethyl)-3-(4-methoxy-phenyl)-4-(S)-methyl-7-phenylamino-3,4-dihydro-1H-pyrimido[4,5-d]pyrimidin-2-one] | < 10

— patent US7112676B2, “Pyrimido compounds having antiproliferative activity” (Hoffmann-La Roche Inc., priority 2002, dated 2006)
